The values below come from EPA's ToxValDB 9.5 (doi:10.2903/j.efsa.2015.4077).

One data set has as its system Anas platyrhynchos. Conditions: reproductive.
The next data set concerns Apis mellifera. Conditions: acute; oral; unspecified; mortality.
A further data set concerns Canidae. The following applies: chronic; duration: 1 years; oral; Dog Other; organ weight.
For a further data set, the system named is Colinus virginianus. The following applies: acute, oral.
A further data set deals with Daphnia magna. Conditions: chronic/long-term; duration: 21 days.
A further data set has as its system Oncorhynchus mykiss. Conditions: acute; duration: 96 hours; mortality.
Another data set has as its system Pimephales promelas. Conditions: chronic/long-term; duration: 35 days; other.
Another data set concerns Pontoscolex corethrurus. The following applies: acute; duration: 14 days; mortality.
For another data set, the system named is Aphidius rhopalosiphi. Nature of the data set: LR50; higher = less toxic. Conditions: not reported; mortality.
In another data set the test system is Typhlodromus pyri. Briefly: LR50; higher = less toxic. Conditions: not reported; mortality.

`CC(C)N1C(=O)c2ccccc2NS1(=O)=O` [Bentazone]: the NOAEL (as a rule, the highest dose or exposure tested at which no adverse effect was seen) in the data set on Anas platyrhynchos was determined as 56 mg/kg-day; with Canidae, 13 mg/kg-day; with Rattus norvegicus (chronic, duration: 2 years, other) it was 9 mg/kg-day; in the data set on Rattus norvegicus (developmental, development) it was 100 mg/kg-day; in the data set with Rattus norvegicus (reproduction developmental), 10.3 mg/kg-day. For the same compound, the LD50 in the data set on Apis mellifera is above 200 µg/piece; with Colinus virginianus it was 565 mg/kg-day; with Rattus norvegicus (acute, M/F) it was 1640 mg/kg-day. Also, the LC50 in the data set with Colinus virginianus (diet) was above 500 mg/kg; with Oncorhynchus mykiss it was above 48.6 µg/mL; in the data set on Pontoscolex corethrurus it was above 1000 mg/kg. In addition, the NOEC in the data set on Daphnia magna was above 101 mg/L; in the data set on Pimephales promelas it was 10 mg/L. For the same compound, the LR50 with Aphidius rhopalosiphi is 699 g/ha; in the data set on Typhlodromus pyri it was 2800 g/ha.
